Like-named read-outs stand apart in the source and are kept apart here.
Legend:
in vitro [1] = assay: in vitro; set-up: species or system CCD841, HEK293; conditions: human, hb2 cells, read-out: HB-2 Cells Viability (%)
PCAF = biological target: T1, PCAF (Homo sapiens, UniProt Q92831); set-up: Intact protein LC/MS covalent labelling, fragments in pools of five, 200 uM each, 4 °C; conditions: 24 h, 4 °C, pool of five; 200 µM; covalent
T1 construct: gene KAT2B

NNMT (hNNMT) = biological target: T2, NNMT (hNNMT) (Homo sapiens, UniProt P40261); set-up: Intact protein LC/MS covalent labelling, fragments in pools of five, 200 uM each, 4 °C; conditions: 24 h, 4 °C, pool of five; 200 µM; covalent
T2 construct: wild type, N-terminal His6 tag kept (no cleavage described), E. coli, construct 31248 Da
T2 sequence (P40261 1-264): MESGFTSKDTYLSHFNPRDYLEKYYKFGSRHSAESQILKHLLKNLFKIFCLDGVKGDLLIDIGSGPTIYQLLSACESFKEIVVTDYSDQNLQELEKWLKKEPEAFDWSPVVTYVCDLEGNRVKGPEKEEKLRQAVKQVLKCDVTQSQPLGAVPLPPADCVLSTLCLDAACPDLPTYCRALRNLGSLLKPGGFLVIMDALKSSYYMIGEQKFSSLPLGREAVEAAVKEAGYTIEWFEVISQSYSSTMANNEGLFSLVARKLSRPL

OTUB2 (OTUB2A) = biological target: T3, OTUB2 (OTUB2A) (Homo sapiens, UniProt Q96DC9); set-up: Intact protein LC/MS covalent labelling, fragments in pools of five, 200 uM each, 4 °C; conditions: 24 h, 4 °C, pool of five; 200 µM; covalent
T3 construct: full length residues 1-234, E. coli BL21(DE3)-R3, His tag removed by TEV, construct 27312 Da
T3 sequence (Q96DC9 1-234): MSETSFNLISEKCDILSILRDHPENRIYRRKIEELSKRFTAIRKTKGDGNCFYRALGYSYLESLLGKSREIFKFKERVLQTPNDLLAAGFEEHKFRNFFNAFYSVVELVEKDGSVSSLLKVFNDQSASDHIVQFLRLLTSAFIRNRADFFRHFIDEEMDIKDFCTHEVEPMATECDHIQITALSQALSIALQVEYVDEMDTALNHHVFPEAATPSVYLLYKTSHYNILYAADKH

NUDT7 = biological target: T4, NUDT7 (Homo sapiens, UniProt P0C024); set-up: Intact protein LC/MS covalent labelling, fragments in pools of five, 200 uM each, 4 °C; conditions: 24 h, 4 °C, pool of five; 200 µM; covalent
T4 construct: residues 14-235, E. coli, pNIC28-Bsa4, N-terminal His6 tag removed by TEV, construct 26672 Da

BSA = biological target: T5, BSA (Bos taurus, UniProt P02769); set-up: Intact protein LC/MS covalent labelling, fragments in pools of five, 200 uM each, 4 °C; conditions: 24 h, 4 °C, pool of five; 200 µM; covalent
T5 construct: gene ALB

in vitro [2] = assay: in vitro; set-up: species or system HB2, HEK293; conditions: human, ccd841 cells
in vitro [3] = assay: in vitro; set-up: species or system HB2, CCD841; conditions: human, hek293 cells

T4 sequence (P0C024 14-235): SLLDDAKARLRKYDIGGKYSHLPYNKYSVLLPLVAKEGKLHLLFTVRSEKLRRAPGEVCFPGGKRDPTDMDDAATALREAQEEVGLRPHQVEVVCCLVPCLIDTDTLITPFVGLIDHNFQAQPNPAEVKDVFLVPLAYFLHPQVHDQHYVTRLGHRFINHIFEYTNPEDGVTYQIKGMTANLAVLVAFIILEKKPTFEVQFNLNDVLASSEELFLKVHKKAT
T1 sequence (Q92831 whole entry, the tested form may be a part): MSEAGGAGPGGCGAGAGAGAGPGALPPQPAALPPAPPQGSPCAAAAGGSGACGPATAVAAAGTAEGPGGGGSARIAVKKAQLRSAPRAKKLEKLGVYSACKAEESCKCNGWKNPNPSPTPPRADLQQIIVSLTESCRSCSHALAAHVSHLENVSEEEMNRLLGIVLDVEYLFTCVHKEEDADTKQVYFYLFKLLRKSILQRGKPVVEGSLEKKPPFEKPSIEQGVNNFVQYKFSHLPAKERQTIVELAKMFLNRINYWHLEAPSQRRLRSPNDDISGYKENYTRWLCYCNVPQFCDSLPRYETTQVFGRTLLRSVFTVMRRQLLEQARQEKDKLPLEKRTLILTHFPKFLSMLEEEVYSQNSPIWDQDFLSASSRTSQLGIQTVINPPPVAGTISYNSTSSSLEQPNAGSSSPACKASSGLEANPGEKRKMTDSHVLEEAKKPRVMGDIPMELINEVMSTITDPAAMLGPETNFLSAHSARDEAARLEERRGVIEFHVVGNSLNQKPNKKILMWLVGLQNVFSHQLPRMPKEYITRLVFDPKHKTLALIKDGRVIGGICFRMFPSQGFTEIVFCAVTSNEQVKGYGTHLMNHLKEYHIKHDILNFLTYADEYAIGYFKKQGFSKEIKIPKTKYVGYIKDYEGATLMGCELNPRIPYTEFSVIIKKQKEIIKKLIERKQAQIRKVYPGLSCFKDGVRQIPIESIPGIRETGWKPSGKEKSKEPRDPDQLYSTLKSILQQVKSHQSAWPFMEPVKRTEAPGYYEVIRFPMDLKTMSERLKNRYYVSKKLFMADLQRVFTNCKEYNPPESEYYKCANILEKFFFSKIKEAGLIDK
T5 sequence (P02769 whole entry, the tested form may be a part): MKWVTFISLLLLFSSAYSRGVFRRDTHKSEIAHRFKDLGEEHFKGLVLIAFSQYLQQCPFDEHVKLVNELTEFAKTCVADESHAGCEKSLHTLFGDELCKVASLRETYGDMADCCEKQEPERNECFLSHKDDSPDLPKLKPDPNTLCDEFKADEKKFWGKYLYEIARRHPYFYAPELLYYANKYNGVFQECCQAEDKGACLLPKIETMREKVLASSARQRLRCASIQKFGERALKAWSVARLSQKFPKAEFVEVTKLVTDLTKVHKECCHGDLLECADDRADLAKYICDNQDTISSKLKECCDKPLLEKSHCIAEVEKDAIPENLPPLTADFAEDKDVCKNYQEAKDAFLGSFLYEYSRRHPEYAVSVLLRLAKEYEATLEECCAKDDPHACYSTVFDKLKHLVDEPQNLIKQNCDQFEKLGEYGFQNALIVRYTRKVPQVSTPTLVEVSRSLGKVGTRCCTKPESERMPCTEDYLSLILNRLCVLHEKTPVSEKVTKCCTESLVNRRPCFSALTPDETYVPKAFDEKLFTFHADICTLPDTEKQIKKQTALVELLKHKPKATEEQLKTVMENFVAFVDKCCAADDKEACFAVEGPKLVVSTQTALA

Structure (SMILES) | viability at 48 h, 10 µM (in vitro [1]) | PCAF (PCAF) | NNMT (NNMT (hNNMT)) | OTUB2 (OTUB2 (OTUB2A)) | NUDT7 (NUDT7) | BSA (BSA) | viability at 48 h, 10 µM (in vitro [2]) | viability at 48 h, 10 µM (in vitro [3])
Cc1ccccc1C(C)NC(=O)CCl (centres unmarked) [PCM-0102390] | 92.8% | 0 | 0.26 | 0.26 | 0.1 | 0 | 71.4% | 75.8%
Cl.O=C(CCl)N1CCN(Cc2ccc3c(c2)OCO3)CC1 [PCM-0102397] | 20.7% | 0 | 0 | 0 | 0 | 0 | 67.3% | 31.7%
O=C(CCl)Nc1ccc(C(=O)O)cc1 [PCM-0102400] | 84.1% | 0 | 0 | 0 | 0 | 0 | 72.5% | 112%
CN(Cc1ccc(Br)cc1)C(=O)CCl [PCM-0102401] | 6.8% | 0 | 0.53 | 0 | 0.58 | 0 | 32.1% | 7.3%
O=C(CCl)NC1C2CC3CC(C2)CC1C3 (centres unmarked) [PCM-0102404] | 63.3% | 0 | 0 | 0.33 | 0 | 0 | 68.9% | 90.6%
CS(=O)(=O)c1cccc(NC(=O)CCl)c1 [PCM-0102407] | 26.4% | 0 | 0 | 0.33 | 0 | 0 | 47% | 1.4%
O=C(CCl)NC(=O)c1ccccc1 [PCM-0102414] | 102% | 0 | 0 | 0 | 0 | 0 | 101% | 91.5%
O=C(CCl)Nc1ccccc1N1CCOCC1 [PCM-0102416] | 99.5% | 0 | 0 | 0 | 0 | 0 | 90.7% | 113%
COC(=O)c1c(NC(=O)CCl)sc2c1CCC(C)C2 (centres unmarked) [PCM-0102418] | 40.8% | 0 | 0.8 | 0 | 0.12 | 0 | 88.6% | 56.4%
C=CC(=O)N1CCCc2cc(C(=O)O)ccc21 [PCM-0102421] | 96.3% | 0 | 0.19 | 0 | 0 | 0 | 109% | 87.2%
O=C(CCl)NN1C(=O)NC2(CCCCC2)C1=O [PCM-0102424] | 95% | 0 | 0 | 0 | 0.06 | 0 | 94.7% | 103%
CC(C)c1cccc(NC(=O)CCl)c1 [PCM-0102429] | 17.7% | 0 | 0.52 | 0.23 | 0.1 | 0 | 57.3% | 17.7%
Cc1cc(CNC(=O)CCl)cc(C)c1O [PCM-0102431] | 85.7% | 0 | 0 | 0.64 | 0 | 0 | 96.3% | 84.6%
O=C(CCl)N1Cc2ccccc2C(c2ccccc2)C1 (centres unmarked) [PCM-0102432] | 38.2% | 0 | 0.65 | 0.17 | 0.33 | 0 | 12.4% | 20.6%
C=CC(=O)N1CCC(n2ccc(C(F)(F)F)n2)CC1 [PCM-0102435] | 96.3% | 0 | 0 | 0 | 0 | 0 | 93.3% | 85.7%
C=CC(=O)N1CC(S(=O)(=O)CC)C1 [PCM-0102442] | 94.8% | 0 | 0.14 | 0 | 0 | 0 | 100% | 77.7%
COc1ccc(C(=O)NC(=O)CCl)cc1 [PCM-0102454] | 97.1% | 0 | 0.36 | 0 | 0 | 0 | 103% | 96.7%
O=C(CCl)Nc1nc2c(s1)CCC2 [PCM-0102457] | 42.3% | 0 | 0.59 | 0 | 0.37 | 0 | 61% | 43.3%
O=C(CCl)Nc1nnc(-c2ccccc2)o1 [PCM-0102458] | 97.2% | 0 | 0.14 | 0.08 | 0 | 0 | 98% | 104%
C=CC(=O)N1CCC(C(=O)O)(c2ccccc2)CC1 [PCM-0102459] | 103% | 0 | 0 | 0 | 0 | 0 | 98.8% | 110%
O=C(CCl)NC(=O)c1cccc([N+](=O)[O-])c1 [PCM-0102460] | 99.8% | 0 | 0.12 | 0 | 0 | 0 | 95.9% | 117%
O=C(CCl)NC(=O)C1COc2ccccc2O1 (centres unmarked) [PCM-0102462] | 103% | 0 | 0 | 0 | 0 | 0 | 102% | 99.1%
O=C(CCl)NC(=O)c1ccccc1Br [PCM-0102464] | 104% | 0 | 0 | 0 | 0 | 0 | 113% | 107%
C=CC(=O)N1CCC(CN)CC1.Cl [PCM-0102467] | 95.4% | 0 | 0 | 0 | 0 | 0 | 105% | 91%
O=C(CCl)N=c1sccn1Cc1ccccc1 [PCM-0102469] | 42.3% | 0 | 0.25 | 0.11 | 0 | 0 | 5.2% | 7%

From publication PMC6556873, “Rapid Covalent-Probe Discovery by Electrophile-Fragment Screening” (Journal of the American Chemical Society, 2019)
